Experimental data as given in publication PMC13198257, “An aerosolized dual-action autotaxin inhibitor-PPARγ agonist for the treatment of pulmonary fibrosis” (Cell Reports Medicine, 2026).

System: lung gene expression
Test: RNA sequencing of lung tissue (BLM/EL244 vs BLM)
Assay type: in vivo, mouse
Description: RNA quality was assessed using an Agilent TapeStation 4150 with the High Sensitivity […] ScreenTape (Agilent), according to the manufacturer’s protocols. For library preparation, the QuantSeq 3’mRNA-Seq Library Prep Kit (Lexogen) was used according to manufacturer’s instructions. Briefly, 500 ng of RNA from each sample was used for first-strand synthesis, followed by RNA template removal, and second-strand synthesis initiated by random primers. In-line barcodes were introduced at this step, and this was followed by magnetic bead-based purification. The resulting libraries were amplified for 15 cycles and re-purified, with quantity and quality assessed on a Qubit 4 Fluorometer with the Invitrogen Qubit dsDNA HS Assay and an Agilent Tapestation 4150 with the High Sensitivity D1000 assay kit, respectively. The quantified libraries were pooled equimolarly; 50ng of total library mix was used for Adapter Conversion PCR Amplification using the Universal Library Conversion Kit (App-A), Version: V1.0 (MGI Tech Co., Ltd.), according to the manufacturer’s instructions.
The quantity and quality of the purified adapter conversion PCR (AC-PCR) product were evaluated on a Qubit 4 Fluorometer with the Invitrogen Qubit dsDNA HS Assay and on an Agilent Tapestation 4150 with the High Sensitivity D1000 assay kit, respectively. This was followed by DNA denaturation, Single-Strand Circularisation, Enzymatic Digestion, Enzymatic Digestion Product Cleanup and Quality Control steps on 1 pmol of AC-PCR product, according to the Universal Library Conversion Kit (App-A) User Manual (Version: A3).
Finally, 60 fmol of ssCirDNA were used for DNB preparation and sequencing on a DNBSEQ-G400 platform at the BSRC Alexander Fleming Genomics Facility, using a G400 App-A FCS SE100 High-throughput Sequencing Set (MGI Tech Co., Ltd.), according to the manufacturer’s instructions.
Alignment of the FASTQ files was performed against the mouse genome build mm10 using a custom Bash script.[143] Read counting on the 3′ UTRs and differential expression analysis were conducted using the metaseqR2 bioconductor package.[144] Genes corresponding to the following biotypes were excluded: polymorphic_pseudogene, processed_transcript, pseudogene, IG_V_pseudogene, misc_RNA, IG_C_gene, IG_J_gene, IG_D_gene, IG_LV_gene, TR_V_gene, TR_V_pseudogene, TEC, and processed_pseudogene. Gene counts were normalized with DESEQ[145] through metaseqR2. Genes with more than 10 counts in at least 50% of the samples were kept for further processing. For differential expression analysis, the PANDORA algorithm[146] was used to estimate a meta p-value integrating the results from the DESEQ, DESEQ2,[147] edgeR,[148] limma,[149] NBPSeq,[150] and NOISeq[151] algorithms. All additional parameters were set to default values.
Pathway enrichment analysis was performed for the Gene Ontology Biological process (BP) and Molecular Function (MF) terms through GeneCodis 4.[152] The volcano plots, scatterplots, Venn diagrams, and dot plots were generated using the ggplot2 Bioconductor package.

[1] = lung tissue of BLM-treated mice, BLM/EL244 vs BLM

Compound: O=C1NC(=O)C(Cc2ccc(OCCC3CCN(C(=O)OCc4cc(Cl)cc(Cl)c4)CC3)cc2)S1 (stereo not shown) [EL244, 3,5-dichlorobenzyl 4-(2-(4-((2,4-dioxothiazolidin-5-yl)methyl)phenoxy)ethyl)piperidine-1-carboxylate]
- log2 nFC BLM/EL244 vs BLM (DEG Trem2): -1.42
- log2 nFC BLM/EL244 vs BLM (DEG Trip13): -1.42
- Ttn log2 nFC BLM/EL244 vs BLM (DEG Ttn, nFC: normalised fold change): 2.53
- Unc45b log2 nFC BLM/EL244 vs BLM (DEG Unc45b, nFC: normalised fold change): 0.77
- Upk3b log2 nFC BLM/EL244 vs BLM (DEG Upk3b, nFC: normalised fold change): 1.53
- Vpreb3 log2 nFC BLM/EL244 vs BLM (DEG Vpreb3, nFC: normalised fold change): 0.71
- Vwa3b log2 nFC BLM/EL244 vs BLM (DEG Vwa3b, nFC: normalised fold change): 0.98
- log2 nFC BLM/EL244 vs BLM (DEG Wfdc17): -1.30
- Xndc1 log2 nFC BLM/EL244 vs BLM (DEG Xndc1, nFC: normalised fold change): 1.14
- Zmynd10 log2 nFC BLM/EL244 vs BLM (DEG Zmynd10, nFC: normalised fold change): 1.28
- log2 nFC BLM/EL244 vs BLM (DEG Zranb3): -1.43
- log2 nFC BLM/EL244 vs BLM (DEG Zwilch): -1.54
- 1810010H24Rik log2 nFC [1]: 0.90
- 1810010H24Rik nFC [1]: 1.87
- Abca8a log2 nFC [1]: 0.75
- Abca8a nFC [1]: 1.68
- Abi3bp log2 nFC [1]: 1.00
- Abi3bp nFC [1]: 2.00
- Acbd4 log2 nFC [1]: 0.86
- Acbd4 nFC [1]: 1.81
- Adgrf5 log2 nFC [1]: 0.68
- Adgrf5 nFC [1]: 1.60
- Adh7 log2 nFC [1]: 1.02
- Adh7 nFC [1]: 2.02
- Aldh1a1 log2 nFC [1]: 0.78
- Aldh1a1 nFC [1]: 1.71
- Ankrd44 log2 nFC [1]: 0.84
- Ankrd44 nFC [1]: 1.79
- Aox3 log2 nFC [1]: 1.07
- Aox3 nFC [1]: 2.09
- Ar log2 nFC [1]: 1.04
- Ar nFC [1]: 2.06
- Arhgef28 log2 nFC [1]: 0.76
- Arhgef28 nFC [1]: 1.70
- Arhgef38 log2 nFC [1]: 0.87
- Arhgef38 nFC [1]: 1.83
- Arl4a log2 nFC [1]: 0.70
- Arl4a nFC [1]: 1.63
- Atp2a3 log2 nFC [1]: 0.83
- Atp2a3 nFC [1]: 1.77
- Atp6v1c2 log2 nFC [1]: 1.03
- Atp6v1c2 nFC [1]: 2.04
- Atp7b log2 nFC [1]: 0.95
- Atp7b nFC [1]: 1.93
- Bcar3 log2 nFC [1]: 0.82
- Bcar3 nFC [1]: 1.76
- Bmp6 log2 nFC [1]: 1.07
- Bmp6 nFC [1]: 2.10
- Cbr2 log2 nFC [1]: 0.91
- Cbr2 nFC [1]: 1.88
- Ccdc153 log2 nFC [1]: 0.79
- Ccdc153 nFC [1]: 1.73
- Ccdc171 log2 nFC [1]: 1.04
- Ccdc171 nFC [1]: 2.06
- Ccl5 log2 nFC [1]: 0.76
- Ccl5 nFC [1]: 1.69
- Cep85l log2 nFC [1]: 1.02
- Cep85l nFC [1]: 2.03
